{"source": "paper PMC3545969", "about": "“Mutagenicity and antimutagenicity of (−)-hinokinin a trypanosomicidal compound measured by Salmonella microsome and comet assays” (BMC Complementary and Alternative Medicine, 2012)", "key": {"V79 cells [1]": {"tested_on": "V79 cells", "test": "Comet assay, genotoxicity in V79 cells", "format": "cell-based, Chinese hamster", "set-up": "Class 0 / Class 1 / Class 2 / Class 3: unit not given here", "conditions": "3 h", "protocol": "(§1) Chinese hamster lung fibroblasts (V79) were kindly supplied by Professor Cólus (Universidade Estadual de Londrina (UEL), Paraná, Brazil). Cells were maintained as monolayers in plastic culture flasks (25 cm^2) in HAM-F10 (Sigma-Aldrich) plus DMEM (Sigma-Aldrich, 1:1) culture medium supplemented with 10%; fetal bovine serum (Nutricell), antibiotics (0.01 mg mL^−1 streptomycin and 0.005 mg mL^−1 penicillin; Sigma-Aldrich) and 2.38 mg mL^−1 Hepes (Sigma-Aldrich), at 37°C in a BOD-type chamber. Under these conditions, the average cell cycle time was 12 h.\n(§2) HK was first dissolved in a mixture of methanol (100 μL) and distilled water (900 μL). The final concentration of methanol in the culture was 0.1%;. The choice of concentrations was based on the results of previous experiments with HK [12]. In the experiments, 3 × 10^5 cells (V79) were seeded into tissue-culture flasks, incubated for two cycles (24 h) in complete HAM-F10/DMEM medium, washed with phosphate buffer saline (PBS), and then subjected to one of the following treatments, in serum-free medium, for 3 h. To assess genotoxicity, the cells were treated with each concentration of HK alone, while for antigenotoxicity, they were treated with the mutagen DXR (0.3 μM) in combination with each HK concentration. Positive (DXR) and negative controls were also included in the test. At the end of the treatment, the cells were washed with ice-cold PBS and trypsinized with 200 μL trypsin. After 3 min, the cells were gently resuspended in complete medium and 20 μL of the cell suspension was immediately used for the test.\n(§3) The procedures described by Singh et al. were adopted, with minor modifications, as described in detail by Speit and Hartmann and reviewed by Burlinson et al.. Briefly, a microscope slide was covered with a base layer of 1.5%; normal-melting agarose (Invitrogen) and 20 μL of the test cells suspended in 120 μL 0.5%; low-melting agarose (Invitrogen) at 37°C was then spread over the base layer. A coverslip was added and the agarose allowed to solidify at 4°C for 15 min. Next, the coverslip was gently removed and the slides were immersed in freshly prepared lysing solution consisting of 89 mL stock solution (2.5 M NaCl, 100 mM EDTA, 10 mM Tris, pH 10.0, and 1%; sodium lauryl sarcosine), 10 mL DMSO and 1 mL Triton X-100, pH 10.0, at 4°C, for at least 20 h, protected from light. At the end of this period, the slides were transferred to an electrophoresis chamber containing a high pH (>13.0) buffer (300 mM NaOH, 1 mM EDTA) and incubated at 4°C for 20 min to allow the DNA to unwind. A current of 25 V (1.0 V cm^−1, 300 mA) was applied for 20 min. The slides were then submerged in a neutralization buffer (0.4 M Tris - HCl, pH 7.5) for 15 min, dried at room temperature and fixed in 100%; ethanol for 10 min.\n(§4) The slides were stained with 100 μL ethidium bromide (20 μg ml^−1) and covered with a coverslip. All the slides in the experiment were coded before analysis. The stained nucleoids were immediately evaluated at 1000x magnification under a Nikon fluorescence microscope fitted with a 515–560 nm excitation filter and a 590 nm barrier filter.\n(§5) For each treatment, the extent and distribution of DNA damage indicated by the comet assay were evaluated by examining 100 randomly selected and non-overlapping cells on the slides (i.e. 300 nucleoids per treatment). For each slide, the cells were visually scored and allocated to one of four classes (0, 1, 2 and 3), according to tail size, as follows: class 0, undamaged, no tail; class 1, a short tail whose length was smaller than the diameter of the comet head (nucleus); class 2, tail length between 1 and 2 times the diameter of the head; and class 3, maximally damaged: a long tail measuring more than twice the diameter of the head. The few comets containing no head and those with almost all DNA in the tail, or with a very wide tail, were excluded from the analysis since they may arise from dead cells. […]"}, "rat peripheral blood": {"tested_on": "rat peripheral blood", "set-up": "method as in PMID 17141387", "conditions": "cited from earlier work"}, "V79 cells [2]": {"tested_on": "V79 cells", "test": "Comet assay, antigenotoxicity against DXR in V79 cells", "format": "cell-based, Chinese hamster", "set-up": "Class 0 / Class 1 / Class 2 / Class 3: unit not given here", "conditions": "3 h", "protocol": "as §1, §2, §3, §4, §5"}}, "note": "Marks after values point to notes of the source that are not given here.", "data": [{"smiles": "O=C1OC[C@H](Cc2ccc3c(c2)OCO3)[C@H]1Cc1ccc2c(c1)OCO2", "note": "[HK, (−)-hinokinin]", "values": [{"measurement": "Class 0", "setting": "V79 cells [1]; HK 0.5 μM alone", "value": "81.6 ± 4.9"}, {"measurement": "Class 1", "setting": "V79 cells [1]; HK 0.5 μM alone", "value": "12.3± 3.5"}, {"measurement": "Class 2", "setting": "V79 cells [1]; HK 0.5 μM alone", "value": "4.3 ± 3.7"}, {"measurement": "Score", "setting": "V79 cells [1]; HK 0.5 μM alone", "value": "26.0 ± 13.2"}, {"measurement": "Class 0", "setting": "V79 cells [1]; HK 1.0 μM alone", "value": "87.0 ± 5.1"}, {"measurement": "Class 1", "setting": "V79 cells [1]; HK 1.0 μM alone", "value": "11.0 ± 5.2"}, {"measurement": "Class 2", "setting": "V79 cells [1]; HK 1.0 μM alone", "value": "1.3 ± 0.5"}, {"measurement": "Class 3", "setting": "V79 cells [1]; HK 1.0 μM alone", "value": 0}, {"measurement": "Score", "setting": "V79 cells [1]; HK 1.0 μM alone", "value": "13.0 ± 5.0"}, {"measurement": "Class 0", "setting": "V79 cells [1]; HK 2.0 μM alone", "value": "83.0 ± 3.7"}, {"measurement": "Class 1", "setting": "V79 cells [1]; HK 2.0 μM alone", "value": "14.0 ± 2.5"}, {"measurement": "Class 2", "setting": "V79 cells [1]; HK 2.0 μM alone", "value": "2.0 ± 2.0"}, {"measurement": "Class 3", "setting": "V79 cells [1]; HK 2.0 μM alone", "value": 0}, {"measurement": "Score", "setting": "V79 cells [1]; HK 2.0 μM alone", "value": "18.0 ± 5.0"}, {"measurement": "Class 0", "setting": "V79 cells [1]; HK 32 μM alone", "value": "89.0 ± 2.0"}, {"measurement": "Class 1", "setting": "V79 cells [1]; HK 32 μM alone", "value": "10.0 ± 2.0"}, {"measurement": "Class 2", "setting": "V79 cells [1]; HK 32 μM alone", "value": "0.3 ± 0.5"}, {"measurement": "Class 3", "setting": "V79 cells [1]; HK 32 μM alone", "value": "0.6 ± 1.1"}, {"measurement": "Score", "setting": "V79 cells [1]; HK 32 μM alone", "value": "9.6 ± 2.3"}, {"measurement": "Class 0", "setting": "V79 cells [1]; HK 64 μM alone", "value": "88.0 ± 3.6"}, {"measurement": "Class 1", "setting": "V79 cells [1]; HK 64 μM alone", "value": "11.0 ± 4.0"}, {"measurement": "Class 2", "setting": "V79 cells [1]; HK 64 μM alone", "value": "0.6 ± 1.0"}, {"measurement": "Class 3", "setting": "V79 cells [1]; HK 64 μM alone", "value": "1.0 ± 1.0"}, {"measurement": "Score", "setting": "V79 cells [1]; HK 64 μM alone", "value": "13.0 ± 3.4"}, {"measurement": "effect on chromosome damage induced by DXR, micronucleus test", "setting": "rat peripheral blood", "value": "effective in reducing the chromosome damage induced by DXR"}, {"measurement": "genotoxic effect, micronucleus test", "setting": "rat peripheral blood", "value": "no genotoxic effect"}, {"measurement": "Class 0", "setting": "V79 cells [2]; HK 0.5 μM + DXR 0.3 μM", "value": "73.0 ± 7.0"}, {"measurement": "Class 1", "setting": "V79 cells [2]; HK 0.5 μM + DXR 0.3 μM", "value": "20.0 ± 7.5"}, {"measurement": "Class 2", "setting": "V79 cells [2]; HK 0.5 μM + DXR 0.3 μM", "value": "4.6 ± 1.5"}, {"measurement": "Class 3", "setting": "V79 cells [2]; HK 0.5 μM + DXR 0.3 μM", "value": "2.0 ± 2.0"}, {"measurement": "Reduction % (of DXR-induced DNA damage)", "setting": "V79 cells [2]; HK 0.5 μM + DXR 0.3 μM", "value": 76.0, "unit": "%"}, {"measurement": "Score", "setting": "V79 cells [2]; HK 0.5 μM + DXR 0.3 μM", "value": "36.0 ± 6.1^a,b"}, {"measurement": "Class 0", "setting": "V79 cells [2]; HK 1.0 μM + DXR 0.3 μM", "value": "68.0 ± 2.0"}, {"measurement": "Class 1", "setting": "V79 cells [2]; HK 1.0 μM + DXR 0.3 μM", "value": "20.6 ± 2.5"}, {"measurement": "Class 2", "setting": "V79 cells [2]; HK 1.0 μM + DXR 0.3 μM", "value": "8.0 ± 2.0"}, {"measurement": "Class 3", "setting": "V79 cells [2]; HK 1.0 μM + DXR 0.3 μM", "value": "3.3 ± 0.5"}, {"measurement": "Reduction % (of DXR-induced DNA damage)", "setting": "V79 cells [2]; HK 1.0 μM + DXR 0.3 μM", "value": 60.8, "unit": "%"}, {"measurement": "Score", "setting": "V79 cells [2]; HK 1.0 μM + DXR 0.3 μM", "value": "46.0 ± 3.0^a,b"}, {"measurement": "Class 0", "setting": "V79 cells [2]; HK 2.0 μM + DXR 0.3 μM", "value": "65.0 ± 6.8"}, {"measurement": "Class 1", "setting": "V79 cells [2]; HK 2.0 μM + DXR 0.3 μM", "value": "27.0 ± 6.6"}, {"measurement": "Class 2", "setting": "V79 cells [2]; HK 2.0 μM + DXR 0.3 μM", "value": "4.3 ± 2.3"}, {"measurement": "Class 3", "setting": "V79 cells [2]; HK 2.0 μM + DXR 0.3 μM", "value": "2.6 ± 1.6"}, {"measurement": "Reduction % (of DXR-induced DNA damage)", "setting": "V79 cells [2]; HK 2.0 μM + DXR 0.3 μM", "value": 63.4, "unit": "%"}, {"measurement": "Score", "setting": "V79 cells [2]; HK 2.0 μM + DXR 0.3 μM", "value": "44.3 ± 9.2^a,b"}, {"measurement": "Class 0", "setting": "V79 cells [2]; HK 32 μM + DXR 0.3 μM", "value": "35.0 ± 5.0"}, {"measurement": "Class 1", "setting": "V79 cells [2]; HK 32 μM + DXR 0.3 μM", "value": "33.0 ± 3.0"}, {"measurement": "Class 2", "setting": "V79 cells [2]; HK 32 μM + DXR 0.3 μM", "value": "30.0 ± 4.1^b"}, {"measurement": "Class 3", "setting": "V79 cells [2]; HK 32 μM + DXR 0.3 μM", "value": "1.0 ± 1.0"}, {"measurement": "Score", "setting": "V79 cells [2]; HK 32 μM + DXR 0.3 μM", "value": "97.0 ± 10.0^a"}, {"measurement": "Class 0", "setting": "V79 cells [2]; HK 64 μM + DXR 0.3 μM", "value": "32.0 ± 6.1"}, {"measurement": "Class 1", "setting": "V79 cells [2]; HK 64 μM + DXR 0.3 μM", "value": "39.0 ± 3.7"}, {"measurement": "Class 2", "setting": "V79 cells [2]; HK 64 μM + DXR 0.3 μM", "value": "26.0 ± 2.0"}, {"measurement": "Class 3", "setting": "V79 cells [2]; HK 64 μM + DXR 0.3 μM", "value": "2.0 ± 2.0"}, {"measurement": "Score", "setting": "V79 cells [2]; HK 64 μM + DXR 0.3 μM", "value": "97.0 ± 10.0^a"}, {"measurement": "Class 0", "setting": "V79 cells [2]; HK […] + DXR 0.3 μM", "value": "28.0 ± 6.6"}, {"measurement": "Class 1", "setting": "V79 cells [2]; HK […] + DXR 0.3 μM", "value": "40.0 ± 1.0"}, {"measurement": "Class 2", "setting": "V79 cells [2]; HK […] + DXR 0.3 μM", "value": "29.0 ± 5.2^b"}, {"measurement": "Class 3", "setting": "V79 cells [2]; HK […] + DXR 0.3 μM", "value": "3.0 ± 2.5"}, {"measurement": "Score", "setting": "V79 cells [2]; HK […] + DXR 0.3 μM", "value": "106.0 ± 16.0^a"}]}]}
